Assay results taken from patent publication US10562891B2, “Quinazolinones as PARP14 inhibitors” (Ribon Therapeutics Inc., priority 2017, dated 2020).
Counter-ions that a name gives are not always drawn.

Target: catalytic domain of human PARP14 (Homo sapiens (Human), UniProt Q460N5)
Experiment: Enzymatic assay for inhibition of PARP14 (DELFIA, auto-modification with biotin-NAD)
Assay type: biochemical
Conditions: auto-modification of PARP14 by biotin-NAD, 50 nM PARP14, 3 μM biotin-NAD
Outline: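 DELFIA auto-modification read-out: europium-streptavidin bound to biotin-NAD incorporated onto nickel-captured His-TEV PARP14 catalytic domain. Compound preincubated 30 min, then 50 nM enzyme with 3 μM biotin-NAD reacted 3 h, all at 25 °C, pH 8, then NAD quench. Percent inhibition normalized to rucaparib/DMSO wells, fitted (4- or 3-parameter) for IC50.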

Chain of catalytic domain of human PARP14 (Q460N5 1611-1801): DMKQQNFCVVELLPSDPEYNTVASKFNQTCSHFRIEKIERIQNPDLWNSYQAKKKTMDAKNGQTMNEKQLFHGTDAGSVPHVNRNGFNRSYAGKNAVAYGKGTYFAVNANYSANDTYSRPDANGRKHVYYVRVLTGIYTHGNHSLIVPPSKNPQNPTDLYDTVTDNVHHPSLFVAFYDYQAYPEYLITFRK

| IC50 | SMILES |
| --- | --- |
| 1000 to 10000 nM | Cc1cccc2c(=O)[nH]c(CSC3CCN(Cc4ccc5c(c4)NC(=O)C5)CC3)nc12 [Example 156, 8-Methyl-2-(((1-((2-oxoindolin-6-yl)methyl)piperidin-4-yl)thio)methyl)quinazolin-4(3H)-one trifluoroacetate] |
| < 1000 nM | O=c1[nH]c(CSC2CCOCC2)nc2cc(Nc3ccccc3)ccc12 [Example 79, 7-(Phenylamino)-2-(((tetrahydro-2H-pyran-4-yl)thio)methyl)quinazolin-4(3H)-one] |
| < 1000 nM | O=c1[nH]c(CS[C@H]2CCNC[C@@H](F)C2)nc2cc(NC3CCCC3)cc(F)c12 (relative stereo) [Example 241, 7-(Cyclopentylamino)-5-fluoro-2-(((cis-6-fluoroazepan-4-yl)thio)methyl)quinazolin-4(3H)-one] |
| < 1000 nM | CC(=O)NC1(C)CCC(SCc2nc3cc(OCC4CC4)cc(F)c3c(=O)[nH]2)CC1 (stereo not drawn) [Example 380] |
| < 1000 nM | Cc1cccc2c(=O)[nH]c(CSC3CCN(Cc4cnn(Cc5ccccc5)c4)CC3)nc12 [Example 154, 2-(((1-((1-Benzyl-1H-pyrazol-4-yl)methyl)piperidin-4-yl)thio)methyl)-8-methylquinazolin-4(3H)-one trifluoroacetate] |
| < 1000 nM | Cc1cccc2c(=O)[nH]c(CS[C@H]3CC[C@H](CCN)CC3)nc12 [Example 181, 2-((((trans)-4-(2-aminoethyl)cyclohexyl)thio)methyl)-8-methylquinazolin-4(3H)-one] |
| < 1000 nM | NC(=O)[C@H]1CC[C@H](SCc2nc3cc(NC4CCCC4)cc(F)c3c(=O)[nH]2)CC1 [Example 218, trans-4-(((7-(Cyclopentylamino)-5-fluoro-4-oxo-3,4-dihydroquinazolin-2-yl)methyl)thio)cyclohexane-1-carboxamide] |
| < 1000 nM | O=c1[nH]c(CS[C@H]2CC[C@H](O)CC2)nc2cc(N[C@@H]3CCC[C@@H]3F)cc(F)c12 (relative stereo) [Example 341] |
| 1000 to 10000 nM | Cc1cccc2c(=O)[nH]c(CSC3CCCOCC3)nc12 (stereo not drawn) [Example 198, 8-methyl-2-((oxepan-4-ylthio)methyl)quinazolin-4(3H)-one] |
| < 1000 nM | O=c1[nH]c(CSC2CCS(=O)(=O)CC2)nc2cc(NCC3CCC3)c(F)c(F)c12 [Example 339] |
| < 1000 nM | Cc1cccc2c(=O)[nH]c(CSC3CCN(Cc4ccccc4OCC#N)CC3)nc12 [Example 155, 2-(2-((4-(((8-Methyl-4-oxo-3,4-dihydroquinazolin-2-yl)methyl)thio)piperidin-1-yl)methyl)phenoxy)acetonitrile trifluoroacetate] |
| < 1000 nM | CN1CC[C@@H](COc2cc(F)c3c(=O)[nH]c(CSC4CCOCC4)nc3c2)[C@@H](F)C1 (relative stereo) [Example 388] |
| < 1000 nM | O=c1[nH]c(CS[C@H]2CC[C@H](O)CC2)nc2cc(NC3CCCC3)c(F)cc12 [Example 293, 7-(Cyclopentylamino)-6-fluoro-2-(((trans-4-hydroxycyclohexyl)thio)methyl)quinazolin-4(3H)-one] |
| > 10000 nM | CC(=O)Nc1ccc2c(=O)[nH]c(CSC3CCOCC3)nc2c1 [Example 75, N-(4-Oxo-2-(((tetrahydro-2H-pyran-4-yl)thio)methyl)-3,4-dihydroquinazolin-7-yl)acetamide] |
| < 1000 nM | O=c1[nH]c(CSC2CCC(F)(F)CC2)nc2cc(OCC3CCOCC3)cc(F)c12 [Example 366] |
| 1000 to 10000 nM | Cc1cccc2c(=O)[nH]c(CSC3CCN(C[C@H](O)CO)CC3)nc12 [Example 159, (S)-2-(((1-(2,3-Dihydroxypropyl)piperidin-4-yl)thio)methyl)-8-methyl quinazolin-4(3H)-one Trifluoroacetate] |
| > 10000 nM | O=c1[nH]c(CSC2CCOCC2)nc2cc(Cc3ccccc3)ccc12 [Example 11] |
| < 1000 nM | O=c1[nH]c(CSC2CCOCC2)nc2cc(NC3CCCC3)ccc12 [Example 115, 7-(Cyclopentylamino)-2-(((tetrahydro-2H-pyran-4-yl)thio)methyl)quinazolin-4(3H)-one] |
| < 1000 nM | O=c1[nH]c(CSC2CCOCC2)nc2cc(OCC3CCOC3)cc(Br)c12 (stereo not drawn) [Example 376] |
| > 10000 nM | Cc1cccc2c(=O)[nH]c(CS(=O)(=O)C3CCOCC3)nc12 [Example 19, 8-Methyl-2-(((tetrahydro-2H-pyran-4-yl)sulfonyl)methyl)quinazolin-4(3H)-one] |
| < 1000 nM | O=c1[nH]c(CS[C@H]2CC[C@H](CO)CC2)nc2cc(NC3CCCCC3)ccc12 [Example 136, 7-(Cyclohexylamino)-2-(((trans-4-(hydroxymethyl)cyclohexyl)thio)methyl) quinazolin-4(3H)-one] |
| 1000 to 10000 nM | Cc1cccc2c(=O)[nH]c(CSC3CCC(CN)C3)nc12 (stereo not drawn) [Example 191, 2-(((3-(aminomethyl)cyclopentyl)thio)methyl)-8-methylquinazolin-4(3H)-one] |
| 1000 to 10000 nM | CN(c1ccc2c(=O)[nH]c(CSC3CCOCC3)nc2c1)C1CCCCC1 [Example 125, 7-(Cyclohexyl(methyl)amino)-2-(((tetrahydro-2H-pyran-4-yl)thio)methyl)quinazolin-4(3H)-one] |
| < 1000 nM | N#C[C@H]1CC[C@H](Nc2cc3nc(CSC4CCOCC4)[nH]c(=O)c3c(F)c2F)CC1 [Example 360] |
| < 1000 nM | COC(=O)N1CCC(SCc2nc3cc(NC4CCCC4)ccc3c(=O)[nH]2)CC1 [Example 208, Methyl 4-(((7-(cyclopentylamino)-4-oxo-3,4-dihydroquinazolin-2-yl)methyl)thio)piperidine-1-carboxylate] |
| 1000 to 10000 nM | NC(=O)[C@H]1CC[C@H](SCc2nc3cc(OCC4CCC4)cc(F)c3c(=O)[nH]2)CC1 [Example 311, Trans-4-(((7-(cyclobutylmethoxy)-5-fluoro-4-oxo-3,4-dihydroquinazolin-2-yl)methyl)thio)cyclohexane-1-carboxamide] |
| < 1000 nM | O=c1[nH]c(CS[C@H]2CC[C@H](OC(F)(F)F)CC2)nc2cc(OCC3CCOCC3)cc(F)c12 [Example 375] |
| < 1000 nM | O=c1[nH]c(CSC2CCNCC2)nc2cc(NC3CCC3)ccc12 [Example 200, 7-(cyclobutylamino)-2-((piperidin-4-ylthio)methyl)quinazolin-4(3H)-one] |
| < 1000 nM | CC(=O)N1CCC(COc2cc(Cl)c3c(=O)[nH]c(CSC4CCOCC4)nc3c2)CC1 [Example 423] |

| SMILES | IC50 |
| --- | --- |
| CC(C)COc1cc(F)c2c(=O)[nH]c(CSC3CCOCC3)nc2c1 [Example 306, 5-Fluoro-7-isobutoxy-2-(((tetrahydro-2H-pyran-4-yl)thio)methyl)quinazolin-4(3H)-one] | 1000 to 10000 nM |
| Cc1cccc2c(=O)[nH]c(CSC3CCNCC3)nc12 [Example 13, 8-Methyl-2-((piperidin-4-ylthio)methyl)quinazolin-4(3H)-one Trifluoroacetate] | < 1000 nM |
| O=c1[nH]c(CSC2CCOCC2)nc2cc(N[C@H]3CC[C@H](N4CCOCC4)CC3)cc(F)c12 [Example 233, 5-Fluoro-7-((trans-4-morpholinocyclohexyl)amino)-2-(((tetrahydro-2H-pyran-4-yl)thio)methyl)quinazolin-4(3H)-one Trifluoroacetate] | < 1000 nM |
| O=c1[nH]c(CSC2CCNCC2)nc2cc(NC3CCCC3)c(F)c(F)c12 [Example 232, 7-(Cyclopentylamino)-5,6-difluoro-2-((piperidin-4-ylthio)methyl)quinazolin-4(3H)-one Hydrochloride] | < 1000 nM |
